From patent US11971412B2, “Polypeptide-antibody complexes and uses thereof” (Mayo Foundation for Medical Education and Research, priority 2017, dated 2024) come the findings set out here.

The test system of experiment [1] is CD20+ Daudi lymphoma cells. The experiment can be described thus: Flow cytometry staining of CD20+ Daudi lymphoma cells. In kind it is cell-based. As to conditions: CD20+ Daudi lymphoma cells incubated 30 minutes at 4° C., washed with FACS buffer. The procedure:
FIG. 1 is a series of scatter plots from flow cytometry studies using a polypeptide having the sequence […] (SEQ ID NO:3) that was labeled with QDs that emit at a wavelength of 565 nm, and complexed with a therapeutic antibody (rituximab). […] CD20+ Daudi lymphoma cells were incubated with isotype control, FITC-rituximab, peptide-QD only, peptide-QD+rituximab (10:1), and peptide-QD+rituximab (25:1) for 30 minutes at 4° C. After washing with FAGS buffer (PBS+0.5% BSA and 0.5% Na azide), the stained cells were analyzed by flow cytometry for recognition of CD20. The Daudi cells were 95% CD20+ (top left), 11.62% positive when stained with peptide-QD only (bottom left), and 57.02% and 61.31% positive with peptide-QD-rituximab at 10:1 and 25:1 (bottom center and bottom right, respectively).
The fluorescently labeled peptide was then bound to rituximab, trastuzumab, or atezolizumab and tested for binding to tumor cells expressing the pertinent tumor target. […] CD20+ Daudi lymphoma cells were incubated with isotype control, FITC-rituximab, polypeptide-QD only, polypeptide-QD-rituximab (10:1) complex, and polypeptide-QD-rituximab (25:1) complex for 30 minutes at 4° C. After washing with FACS buffer (PBS+0.5% BSA and 0.5% Na azide), the stained cells were analyzed by flow cytometry. […]
A general note: A flow cytometer gives signals particle by particle.

Experiment [2] concerns SK-Br-3 (HER2/neu-positive) cells. The experiment can be described thus: Flow cytometry staining of HER2/neu-positive SK-Br-3 cells. In kind it is cell-based. The protocol: FIG. 4 is a series of scatter plots from flow cytometry studies using SK-Br-3 (HER2/neu-positive) cells stained with a SEQ ID NO:3-QD-trastuzumab complex. The SK-Br-3 cells were incubated with isotype control antibody (top left), PE-anti-HER2 (top middle), SEQ ID NO:3-QD only (top right), and SEQ ID NO:3-QD-trastuzumab complex (bottom left). The cells were 84.7% positive for HER2/neu, 15.9% positive with SEQ ID NO:3-QD only and 68.9% positive with SEQ ID NO:3-QD-trastuzumab complex. A histogram representation of the data is included at the bottom right of the figure.
Additional experiments utilized HER2/neu-positive SK-Br-3 cells stained with polypeptide-QD bound to trastuzumab. The SK-Br-3 cells were incubated with isotype (FIG. 4, top left), PE-anti-HER2 (FIG. 4, top middle), polypeptide-QD only (FIG. 4, top right), and polypeptide-QD-trastuzumab complex (FIG. 4, bottom left). The cells were 84.7% positive for HER2/neu, 15.9% positive with polypeptide-QD only and 68.9% positive with the polypeptide-QD-trastuzumab complex. A histogram representation of the data is shown at the bottom right of […].

Ends that are not written are not given here.

“polypeptide-QD only: SEQ ID NO:3 polypeptide thiol-linked via SMCC crosslinker to PEG-coated Quantum Dots, without antibody (CGSGGGSVVLNQLCVLHEKTPVSDR; not fully specified (residue 1); also: Cys1 thiol linked via SMCC to PEG-coated quantum dot)”: the “Daudi cells positive by flow cytometry” value in experiment [1] is recorded as 11.62%. For the same substance, the “SK-Br-3 cells positive by flow cytometry” value in experiment [2] worked out at 15.9%.
Regarding “FITC-rituximab: FITC-labeled rituximab used as direct CD20 stain of Daudi cells [reference compound]”, the “Daudi cells positive by flow cytometry” value in experiment [1] was found to be 95%.
